Data: US20180071317A1, “USE OF AGENTS THAT ALTER THE PERITUMORAL ENVIRONMENT FOR THE TREATMENT OF CANCER” (SERVICIO ANDALUZ DE SALUD, priority 2011, published 2018)

Assays:
[1] = system: fibroblasts (PHF) co-cultured with tumor cells of human Edwing sarcoma (MHH-ES-1); assay: Marker expression (IHC) in PHF co-cultured with MHH-ES-1 tumor cells; format: cell-based; conditions: PHF co-cultured with MHH-ES-1 + SP
Experimental: All cultures were maintained 48 hours, following which the same cells were included in paraffin blocks for subsequent analysis of the expression of different markers by immunohistochemistry (see Example 1). […] All experiments were carried out sixfold. Analyzed markers in fibroblast cells (stromal cells) were: TGF-α, TGF-β1, TGF-β2, TGF-β3, SPARC, MMP-3, MMP-7, MMP-9, MMP-11, MMP-13 and MMP-14.

polymorphonuclear cells = assay: Marker expression (immunohistochemistry) in polymorphonuclear blood cells with SP alone or with NK1 antagonists; format: cell-based, human; conditions: SP 1 μM; 48 h
Text: Briefly, heparinized blood from healthy donors was centrifuged so as to separate the various components thereof. Red blood cells remained at the bottom of the tube. Above them was a small white layer composed of the white blood cells and above, on top of the tube, the blood plasma. The layer of white cells was distributed in a culture plate of 24 wells by adding in each the same concentration of blood plasma from the same donor, supplemented with 1% antibiotic-antimycotic (Invitrogen). In each well, approximately 1000 cells (PHF) skin from the dermis were further added, obtained as previously described in Example 2. […] After 48 hours of incubation, cells were collected and embedded in paraffin for expression analysis by immunohistochemical techniques (as described in Example 1).
The expression of TGF molecular markers (anti-TGF 2, SAB4502956) and NF-kB (anti-NF-kB, SAB4501992) using specific antibodies against them were analyzed. All antibodies used were rabbit polyclonal antibodies obtained from Sigma Aldrich and were used at a concentration of 1/1000. All experiments were carried out sixfold.

[2] = system: fibroblasts (PHF) cells co-cultured with human T lymphoma tumor (DERL-7); assay: Marker expression (IHC) in PHF co-cultured with DERL-7 tumor cells; format: cell-based; conditions: PHF co-cultured with DERL-7 + SP
[3] = system: leukocyte cells (mono and polymorphonuclear) in co-culture with cells isolated from primary human tumors; assay: Marker expression (IHC) in leukocytes co-cultured with primary human tumor cells (colon, pancreatic, lung carcinoma, glioma, melanoma); format: cell-based; conditions: SP 1 μM;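 further: tumor cells and leukocytes came from the same patients, co-culture contents were paraffin-embedded for immunohistochemistry with antibodies to TGF-β2 or NF-kB, leukocytes cultured alone served as control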
Experimental: To check that the interaction of the human primary tumor cells with cells of the immune/inflammatory (mono and polymorphonuclear leukocytes) cells, stimulates the secretion of substances of importance for survival and tumor progression, cultures were carried out using sets of immune cells/inflammatory (mono and polymorphonuclear leukocytes) with tumor cells obtained directly from primary human tumors of the same patients.
The same method described in Example 7 and 9 was used to obtain tumor cells from primary human tumors. Similarly cultured immune cells/inflammatory (mono and polymorphonuclear leukocytes) were used as control and secondly, cultured tumor cells isolated from patients in the presence of immune cells/inflammatory (mono and polymorphonuclear leukocytes).
Then, paraffin blocks were prepared with the contents of each of the groups mentioned previously for expression studies using immunohistochemistry. On this occasion, in order to identify the secretion of substances with importance for the survival and progression of tumor the following markers were analyzed: TGF-β2 (SAB4502956) and NF-kB (SAB4501992) using specific antibodies against them. All antibodies used were rabbit polyclonal antibodies obtained from Sigma Aldrich and were used at a concentration of 1/1000. Immunohistochemical techniques were performed and evaluated as described in previous examples.

[4] = system: fibroblasts (PHF) co-cultured with tumor cells of human pancreatic adenocarcinoma (CAPAN-1); assay: Marker expression (IHC) in PHF co-cultured with CAPAN-1 tumor cells; format: cell-based; conditions: co-culture with CAPAN-1; SP 1 μM; 48 h;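 further: cultures grown in fresh plasma from a healthy human donor, run in six replicates, value is percent of fibroblasts positive for each marker, compared with fibroblasts cultured alone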
Experimental: All cultures were maintained 48 hours, following which the same cells were included in paraffin blocks for subsequent analysis of the expression of different markers by immunohistochemistry (see Example 1). The primary antibodies used to perform immunohistochemical assays and their concentration are detailed in Example 2. All experiments were carried out sixfold. Analyzed markers in fibroblast cells (stromal cells) were: TGF-α, TGF-β1, TGF-β2, TGF-β3, SPARC, MMP-3, MMP-7, MMP-9, MMP-11, MMP-13 and MMP-14.

[5] = co-culture with cells isolated from colon carcinoma
[6] = co-culture with cells isolated from glioma
[7] = co-culture with cells isolated from lung carcinoma
[8] = co-culture with cells isolated from melanoma
[9] = co-culture with cells isolated from pancreatic carcinoma

CSCC[C@H](NC(=O)[C@H](CC(C)C)NC(=O)CNC(=O)[C@H](Cc1ccccc1)NC(=O)[C@H](Cc1ccccc1)NC(=O)[C@H](CCC(N)=O)NC(=O)[C@H](CCC(N)=O)NC(=O)[C@@H]1CCCN1C(=O)[C@H](CCCCN)NC(=O)[C@@H]1CCCN1C(=O)[C@@H](N)CCCNC(=N)N)C(N)=O [SP]
cells expressing MMP-3 [1]: 43.5 ± 3.7% | cells expressing MMP-7 [1]: 56.7 ± 4.8% | cells expressing MMP-9 [1]: 54.4 ± 2.4% | cells expressing MMP-11 [1]: 28.4 ± 3.8% | cells expressing MMP-13 [1]: 46.6 ± 3.6% | cells expressing MMP-14 [1]: 49.6 ± 4.2% | cells expressing SPARC [1]: 46.5 ± 3.2% | cells expressing TGF-α [1]: 36.4 ± 3.1% | cells expressing TGF-β1 [1]: 35.5 ± 2.1% | cells expressing TGF-β2 [1]: 42.6 ± 5.1% | cells expressing TGF-β3 [1]: 42.4 ± 1.6% | polymorphonuclear cells expressing NF-kB (polymorphonuclear cells): 17.5 ± 1.6% | polymorphonuclear cells expressing TGF-β (polymorphonuclear cells): 36.8 ± 2.1% | cells expressing MMP-3 [2]: 63.4 ± 3.7% | cells expressing MMP-7 [2]: 66.1 ± 4.8% | cells expressing MMP-9 [2]: 62.3 ± 3.4% | cells expressing MMP-11 [2]: 67.8 ± 4.8% | cells expressing MMP-13 [2]: 61 ± 5.3% | cells expressing MMP-14 [2]: 58.4 ± 3.5% | cells expressing SPARC [2]: 67 ± 4.2% | cells expressing TGF-α [2]: 62.5 ± 3.1% | cells expressing TGF-β1 [2]: 64.5 ± 4.3% | cells expressing TGF-β2 [2]: 70.6 ± 4.1% | cells expressing TGF-β3 [2]: 61 ± 5.6% | Percentage of mononuclear leukocytes cells which expressed NF-kB [3, 5]: 47.5 ± 4.6% | Percentage of mononuclear leukocytes cells which expressed TGF-β [3, 5]: 36.5 ± 3.5% | Percentage of polymorphonuclear leukocytes cells which expressed NF-kB [3, 5]: 36.6 ± 4.7% | Percentage of polymorphonuclear leukocytes cells which expressed TGF-β [3, 5]: 45.8 ± 3.5% | Percentage of mononuclear leukocytes cells expressing NF-kB [3, 6]: 41.6 ± 4.1% | Percentage of mononuclear leukocytes cells expressing TGF-β [3, 6]: 41.7 ± 3.4% | Percentage of polymorphonuclear leukocytes cells expressing NF-kB [3, 6]: 39.4 ± 4.2% | Percentage of polymorphonuclear leukocytes cells expressing TGF-β [3, 6]: 39.7 ± 3.3% | Percentage of mononuclear leukocytes cells which expressed NF-kB [3, 7]: 41.6 ± 4.2% | Percentage of mononuclear leukocytes cells which expressed TGF-β [3, 7]: 42.7 ± 3.3% | Percentage of polymorphonuclear leukocytes cells which expressed NF-kB [3, 7]: 35.5 ± 4.2% | Percentage of polymorphonuclear leukocytes cells which expressed TGF-β [3, 7]: 38.7 ± 3.3% | Percentage of mononuclear leukocytes cells which expressed NF-kB [3, 8]: 51.7 ± 5.3% | Percentage of mononuclear leukocytes cells which expressed TGF-β [3, 8]: 49.6 ± 4.2% | Percentage of polymorphonuclear leukocytes cells which expressed NF-kB [3, 8]: 56.6 ± 4.6% | Percentage of polymorphonuclear leukocytes cells which expressed TGF-β [3, 8]: 54.5 ± 3.5% | Percentage of mononuclear leukocytes cells which expressed TGF-β [3, 9]: 39.5 ± 4.5% | Percentage of polymorphonuclear leukocytes cells which expressed NF-kB [3, 9]: 35.4 ± 4.2% | Percentage of polymorphonuclear leukocytes cells which expressed TGF-β [3, 9]: 36.5 ± 3.1% | PHF cells expressing MMP-3 [4]: 44.4 ± 1.6% | PHF cells expressing MMP-7 [4]: 58.2 ± 2.4% | PHF cells expressing MMP-9 [4]: 56.4 ± 1.5% | PHF cells expressing MMP-11 [4]: 25.3 ± 1.5% | PHF cells expressing MMP-13 [4]: 55 ± 3.6% | PHF cells expressing MMP-14 [4]: 47.2 ± 4.7% | PHF cells expressing SPARC [4]: 49 ± 1.4% | PHF cells expressing TGF-α [4]: 42.4 ± 2.1% | PHF cells expressing TGF-β1 [4]: 37.6 ± 1.4% | PHF cells expressing TGF-β2 [4]: 42.4 ± 6.1% | PHF cells expressing TGF-β3 [4]: 43 ± 2.6%
